In patent US20260193278A1, “NOVEL PHTHALOCYANINE COMPOUNDS AND THE USE THEREOF FOR THE TREATMENT OF DISEASES” (RHODES UNIVERSITY, priority 2022, published 2026):

Experiments:
Type in all cases: cell-based
S. aureus = experiment: Dark toxicity against S. aureus, concentration study at 0 min (CFU counting); conditions: for log reduction (dark toxicity): 0 min; for Staph log CFU/ml (logarithmic reduction value) / Staph μM (concentration corresponding to the logarithmic reduction): in the dark, at 0 min; for Staph log CFU/ml (logarithmic reduction value): at the concentration of the μM column; for Staph μM (concentration corresponding to the logarithmic reduction): range tested 0-10 μM
Description: (§1) 500 μM stock solutions of the samples were prepared in ultra-pure water (5% DMSO) and used at different concentrations in the biological assays.
(§2) Two bacterial strains were used for the PACT studies; S. aureus as a gram-(+) bacterium and E. coli as a gram-(−) negative bacterium. Stock cultures were grown aerobically in 6 mL of nutrient broth incubated at 37° C. on a rotary shaker (~200 rpm) to obtain bacteria cultures. The incubation was maintained until the optical density of the culture at 600 nm was determined to be between 0.6 and 0.8. The resulting bacterial solution was centrifuged to remove the broth, and bacterial cells were washed three times with PBS. The solution of the bacteria was prepared by diluting with PBS to obtain […] bacteria solutions corresponding to ~10^9 and ~10^8 colony forming units (CFU)/mL, respectively.
(§3) The bacteria/photosensitizer mixtures were incubated in an oven equipped with a shaker for 30 min in the dark at 37° C. before plating. 100 μL of solution was taken from the suspension and was immediately inoculated on agar plates to determine the activity at 0 min without treatment. The number of colonies was then counted on each plate after 18 h of incubation at 37° C. Control treatments were performed in the absence of photosensitizer. All experiments were carried out three times. The data for CFU/mL were converted to the logarithmic form.

E. coli = experiment: Dark toxicity against E. coli, concentration study at 0 min (CFU counting); conditions: in the dark; for Ecoli log CFU/ml (logarithmic reduction value): at the concentration of the μM column; for Ecoli μM (concentration corresponding to the logarithmic reduction): range tested 0-15 μM
Description: as §1, §2, §3

[1] = test system: MCF-7 (human breast adenocarcinoma) cells; experiment: In vitro dark cytotoxicity, MCF-7 cells (anticancer studies); conditions: MCF-7, dark; for Min. Death conc. / Cell death: 24 h; for Cell death: at the Min. Death conc.
Description: MCF-7 (human breast adenocarcinoma) cells were cultured in Dulbecco's modified Eagle's medium-10% fetal bovine serum (DMEM-FBS) and PSA (penicillin/streptomycin/Amphotericin B) at 37° C. in an incubator (5% CO2) in 75 cm^2 vented flasks. The cultures were grown as a monolayer. The growth cells were transferred to well plates by trypsinizing with 0.25% trypsin-EDTA. The Pc stock concentrations were prepared by separately dissolving them in DMSO (1%) and diluting in water and the Pc gradient concentration was prepared by taking known aliquots from the stock and finally made up to marked volume with supplemented media with phenol red.
It was studied from […] both in the dark. 100 μL each of the newly prepared gradient Pcs concentration of 0 μg/mL (control), 5 μg/mL, 10 μg/mL, 20 μg/mL, 40 μg/mL, 60 μg/mL 80 μg/mL, 100 μg/mL and 120 μg/mL were administered on the incubated seeded cells. The 96 well cell culture plates containing the cells and the Pcs were incubated at 37° C. and 5% CO2 in the dark for 24 h. After 24 h treatment, the wells were rinsed with 100 μL DPBS. Cell survival was expressed as percentage of control cells (cells without Pcs). Post treatment cell viability was measured using the cell proliferation […] reagent (WST-1 assay) on a Synergy 2 multi-mode microplate reader (BioTek®) at a wavelength of 450 nm according to the following equation 1.

Row | SMILES | destruction of bacteria (FIG. 2) (S. aureus; at 0.5 μM) | log reduction (dark toxicity) (S. aureus; at 0.5-10 μM) | Staph log CFU/ml (logarithmic reduction value) (S. aureus) [log CFU/ml] | Staph μM (concentration corresponding to the logarithmic reduction) (S. aureus) [μM] | Ecoli log CFU/ml (logarithmic reduction value) (E. coli) [log CFU/ml] | Ecoli μM (concentration corresponding to the logarithmic reduction) (E. coli) [μM] | optimal concentration to kill the cancer cells [1] [µM] | Min. Death conc. [1] [µM] | Cell death [1] [%] | cancer cells killed at the optimal concentration [1] [%] | log reduction (dark toxicity) (S. aureus; at 10 μM)
1 | C[n+]1c(-c2ccc(Oc3ccc4c(c3)C3=Nc5c6ccc(Oc7ccc(-c8[nH]c9cc(Cl)cc(Cl)c9[n+]8C)cc7)cc6c6[n]5[Co][n]5c(c7ccc(Oc8ccc(-c9[nH]c%10cc(Cl)cc(Cl)c%10[n+]9C)cc8)cc7c5=NC5=NC(=N6)c6cc(Oc7ccc(-c8[nH]c9cc(Cl)cc(Cl)c9[n+]8C)cc7)ccc65)=NC4=N3)cc2)[nH]c2cc(Cl)cc(Cl)c21.[I-].[I-].[I-].[I-] [Compound 200] | complete destruction | 9.63 | 9.61 | 0.5 | 8.79 | 1 | 40 | 40 | 80.9 | 80.9 | 
2 | C[n+]1c(-c2ccc(Oc3ccc4c(c3)C3=Nc5c6ccc(Oc7ccc(-c8[nH]c9cc(Cl)cc(Cl)c9[n+]8C)cc7)cc6c6[n]5[Cu][n]5c(c7ccc(Oc8ccc(-c9[nH]c%10cc(Cl)cc(Cl)c%10[n+]9C)cc8)cc7c5=NC5=NC(=N6)c6cc(Oc7ccc(-c8[nH]c9cc(Cl)cc(Cl)c9[n+]8C)cc7)ccc65)=NC4=N3)cc2)[nH]c2cc(Cl)cc(Cl)c21.[I-].[I-].[I-].[I-] [Compound 201] |  |  | 9.61 | 8 | 8.79 | 12.5 | 120 | 120 | 45.4 | 45.4 | 9.63
3 | C[n+]1c(-c2ccc(Oc3ccc4c(c3)C3=Nc5c6ccc(Oc7ccc(-c8[nH]c9cc(Cl)c(Cl)cc9[n+]8C)cc7)cc6c6[n]5[Zn][n]5c(c7ccc(Oc8ccc(-c9[nH]c%10cc(Cl)c(Cl)cc%10[n+]9C)cc8)cc7c5=NC5=NC(=N6)c6cc(Oc7ccc(-c8[nH]c9cc(Cl)c(Cl)cc9[n+]8C)cc7)ccc65)=NC4=N3)cc2)[nH]c2cc(Cl)c(Cl)cc21.[I-].[I-].[I-].[I-] [Compound 207] |  |  | 9.31 | 4 | 8.79 | 2.5 |  | 120 | 38.3 |  | 
4 | C[n+]1c(-c2ccc(Oc3ccc4c(c3)C3=Nc5c6ccc(Oc7ccc(-c8[nH]c9cc(Cl)c(Cl)cc9[n+]8C)cc7)cc6c6[n]5[Co][n]5c(c7ccc(Oc8ccc(-c9[nH]c%10cc(Cl)c(Cl)cc%10[n+]9C)cc8)cc7c5=NC5=NC(=N6)c6cc(Oc7ccc(-c8[nH]c9cc(Cl)c(Cl)cc9[n+]8C)cc7)ccc65)=NC4=N3)cc2)[nH]c2cc(Cl)c(Cl)cc21.[I-].[I-].[I-].[I-] [Compound 208] |  |  | 9.31 | 2 | 8.79 | 1 |  | 20 | 78.4 |  | 
5 | C[n+]1c(-c2ccc(Oc3ccc4c(c3)C3=Nc5c6ccc(Oc7ccc(-c8[nH]c9cc(Cl)c(Cl)cc9[n+]8C)cc7)cc6c6[n]5[Cu][n]5c(c7ccc(Oc8ccc(-c9[nH]c%10cc(Cl)c(Cl)cc%10[n+]9C)cc8)cc7c5=NC5=NC(=N6)c6cc(Oc7ccc(-c8[nH]c9cc(Cl)c(Cl)cc9[n+]8C)cc7)ccc65)=NC4=N3)cc2)[nH]c2cc(Cl)c(Cl)cc21.[I-].[I-].[I-].[I-] [Compound 209] |  |  | 9.31 | 10 | 8.79 | 2.5 |  | 20 | 80.4 |  | 
6 | C[n+]1c(-c2ccc(Oc3ccc4c(c3)C3=Nc5c6ccc(Oc7ccc(-c8[nH]c9cc(F)cc(Br)c9[n+]8C)cc7)cc6c6[n]5[Zn][n]5c(c7ccc(Oc8ccc(-c9[nH]c%10cc(F)cc(Br)c%10[n+]9C)cc8)cc7c5=NC5=NC(=N6)c6cc(Oc7ccc(-c8[nH]c9cc(F)cc(Br)c9[n+]8C)cc7)ccc65)=NC4=N3)cc2)[nH]c2cc(F)cc(Br)c21.[I-].[I-].[I-].[I-] [Compound 229] |  |  | 9.25 | 0.5 | 8.79 | 10 |  | 10 | 39.4 |  | 
7 | C[n+]1c(-c2ccc(Oc3ccc4c(c3)C3=Nc5c6ccc(Oc7ccc(-c8[nH]c9cc(F)cc(Br)c9[n+]8C)cc7)cc6c6[n]5[Co][n]5c(c7ccc(Oc8ccc(-c9[nH]c%10cc(F)cc(Br)c%10[n+]9C)cc8)cc7c5=NC5=NC(=N6)c6cc(Oc7ccc(-c8[nH]c9cc(F)cc(Br)c9[n+]8C)cc7)ccc65)=NC4=N3)cc2)[nH]c2cc(F)cc(Br)c21.[I-].[I-].[I-].[I-] [Compound 230] |  |  | 9.25 | 0.5 | 8.79 | 1 |  | 5 | 54.9 |  | 
8 | C[n+]1c(-c2ccc(Oc3ccc4c(c3)C3=Nc5c6ccc(Oc7ccc(-c8[nH]c9cc(F)cc(Br)c9[n+]8C)cc7)cc6c6[n]5[Cu][n]5c(c7ccc(Oc8ccc(-c9[nH]c%10cc(F)cc(Br)c%10[n+]9C)cc8)cc7c5=NC5=NC(=N6)c6cc(Oc7ccc(-c8[nH]c9cc(F)cc(Br)c9[n+]8C)cc7)ccc65)=NC4=N3)cc2)[nH]c2cc(F)cc(Br)c21.[I-].[I-].[I-].[I-] [Compound 231] |  |  | 9.25 | 0.5 | 8.79 | 12.5 |  | 5 | 56.08 |  | 
9 | C[n+]1c(-c2ccc(Oc3ccc4c(c3)C3=Nc5c6ccc(Oc7ccc(-c8[nH]c9cc(Br)cc(Cl)c9[n+]8C)cc7)cc6c6[n]5[Zn][n]5c(c7ccc(Oc8ccc(-c9[nH]c%10cc(Br)cc(Cl)c%10[n+]9C)cc8)cc7c5=NC5=NC(=N6)c6cc(Oc7ccc(-c8[nH]c9cc(Br)cc(Cl)c9[n+]8C)cc7)ccc65)=NC4=N3)cc2)[nH]c2cc(Br)cc(Cl)c21.[I-].[I-].[I-].[I-] [Compound 233] |  |  | 9.25 | 4 | 8.79 | 1 |  | 60 | 91.7 |  | 
